In PMC10331946, “Characterization of Natural Compounds as Inhibitors of NS1 Endonuclease from Canine Parvovirus Type 2” (Journal of Microbiology and Biotechnology, 2023):

Legend:
[1] = system: beagle dogs; parameters: method as in Yang et al. (2022), 42; conditions: dietary supplementation at 2.5 g/kg, ref Yang et al. (2022), 42; cited from earlier work
[2] = system: all animals; parameters: method as in PMID 42087962; conditions: cited from earlier work
[3] = target: T1, CPV-2 NS1 endonuclease (Canine parvovirus type 2, UniProt P12929); test: FRET nicking assay, inhibition of recombinant CPV-2 NS1 endonuclease; format: biochemical, Canine parvovirus type 2 (CPV-2); conditions: for IC50: single compounds, 1.25 μg endonuclease, pH 7.0, 300 mM NaCl, 37°C, curcumin by 4PL, others by linear regression
T1 construct: hexahistidine (N); hexahistidine (C); made in house; host or cells: E. coli BL21 (De3) pLysS
From the text: The fluorescence resonance energy transfer (FRET) substrate, which was composed of an oligonucleotide 5¢-TAA CCT TAC CAT AAG TA↓T CAA TCT GTC TTT-3¢ labeled with carboxyfluorescein (FAM) at the 5¢-terminus and black hole quencher 1 (BHQ1) at the 3¢-terminus as the energy transfer pair, was designed and synthesized by Bioneer Corp. (Korea) (Fig. S1).
cDNA of the CPV-2 NS1 endonuclease gene was synthesized after codon optimization (Genscript, USA) based on the N-terminal amino acid sequence (amino acids 1–277 of the DNA-binding region) of CPV-2 NS1 endonuclease (GenBank Accession No. AAV36764.1) (Fig. S2). The CPV-2 NS1 endonuclease gene was imbedded into the pET-28a (+) vector (Novagen, Germany) with hexahistidine tags at the N- and C-termini. The plasmids were transformed into E. coli BL21 (De3) pLysS (Invitrogen, USA) for expression. The transformed cells were cultured in 1 L of LB containing 30 μg/ml kanamycin at 37°C until the OD600 reached 0.6. Next, protein expression was induced with 1 mM isopropyl β-D-1-thiogalactopyranoside (IPTG) at 24°C for 20 h. Cells were harvested by centrifugation at 12,000 ×g for 25 min and 4°C. The pellet was resuspended in 50 ml 50 mM Tris-HCl buffer (pH 7.0) containing 300 mM NaCl and disrupted by sonication. After centrifugation at 12,000 ×g for 30 min and 4°C, the supernatant was applied to a Ni-NTA agarose column (Qiagen, Germany) and washed with 50 mM Tris-HCl buffer (pH 8.0) containing 300 mM NaCl and 20 mM imidazole. CPV-2 NS1 endonuclease was eluted with 50 mM Tris-HCl buffer (pH 8.0) containing 300 mM NaCl, and 250 mM imidazole, and dialyzed against 50 mM Tris-HCl (pH 7.0) containing 300 mM NaCl at 4°C overnight. The purified protein was stored at −20°C until required.
CPV-2 NS1 endonuclease activity was measured using an FRET substrate as described above. The reaction mixture was composed of 1.25 μg endonuclease and 0.6 μM FRET in 50 mM Tris-HCl buffer (pH 7.0). The reaction was run at 37°C with continuous monitoring of fluorescence for 10 min. Relative fluorescence units (RFUs) were measured using a SpectraMax M3 fluorescence plate reader (Molecular Devices, USA) with an excitation wavelength of 495 nm and an emission wavelength of 517 nm.
Thirty-one compounds, extracted sesame cake, turmeric, and yerba mate were tested for inhibitory effects against CPV-2 NS1 endonuclease. For screening, thirty-one compounds, turmeric, and yerba mate were dissolved in dimethyl sulfoxide (DMSO) to 5 mM or 10 mg/ml as stock solutions. Sesame cake extract (10 mg/ml) was solubilized in water. The reaction was initiated by adding 0.6 μM FRET substrate to a mixture of 50 μM compound and 1.25 μg endonuclease in 50 mM Tris-HCl buffer (pH 7.0) containing 300 mM NaCl. The reaction was run at 37°C for 3 min using a SpectraMax M3 fluorescence plate reader with an excitation wavelength of 495 nm and emission wavelength of 517 nm. Inhibitory activity was calculated using the following equation:
Inhibition activity (%) 100-[(S-S0)÷(C-C0)]×100
where C is RFU of the control (enzyme, buffer, and substrate) after a 3 min reaction, C0 is the RFU of the control at 0 min, S is the RFU of the sample (enzyme, buffer, inhibitor, and substrate) after 3 min, and S0 is the RFU of the sample at 0 min.
We determined the 50% inhibitory concentrations (IC50) of the six natural compounds, extracted turmeric, yerba mate, and sesame cake relative to the inhibitor-free control. The IC50 values of curcumin, and extracted sesame cake were calculated using a four-parameter logistic curve (4PL) using Prism v. 8 software (GraphPad Software Inc., USA). […] 8 software.

[4] = system: bird; conditions: free curcumin 30 mg/kg of feed, cited from earlier work
[5] = system: canine; parameters: method as in Campigotto et al., 34; conditions: diet containing curcumin; ref Campigotto et al., 34; cited from earlier work
[6] = ref Marchiori et al. (2019), 49

T1 sequence (P12929 1-277): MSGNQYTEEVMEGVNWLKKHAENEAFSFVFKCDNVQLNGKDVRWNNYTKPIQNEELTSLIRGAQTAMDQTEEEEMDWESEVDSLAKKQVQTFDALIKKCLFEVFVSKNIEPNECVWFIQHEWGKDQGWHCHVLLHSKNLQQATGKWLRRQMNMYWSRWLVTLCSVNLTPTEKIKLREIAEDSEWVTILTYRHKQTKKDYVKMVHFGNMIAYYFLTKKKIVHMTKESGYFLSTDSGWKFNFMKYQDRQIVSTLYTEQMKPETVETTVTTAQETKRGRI

| SMILES | effect on environmental stress-induced symptoms [1] | safe proposed maximum level in complete feed [2] [mg/kg] | IC50 ([3]; 0.6 μM FRET substrate, 3 min) [nM] | antioxidant capacity versus control group [4] | egg production versus controls [4, 6] | egg weight and mass versus controls [4, 6] | effect on canine health [5] | Inhibition (%) at 50 μM ([3]; 50 μM inhibitor, 0.6 μM FRET substrate, 1.25 μg enzyme, 50 mM Tris/HCl pH 7.0, 37°C, 3 min) [%] | inhibition at 50 µM ([3]; pH 7, read-out: Inhibition (%) at 50 μM, 50 μM inhibitor, 0.6 μM FRET substrate, 1.25 μg enzyme, 50 mM Tris/HCl pH 7.0, 37°C, 3 min) [%] | fold higher CPV-2 NS1 endonuclease inhibitory activity than demethoxycurcumin ([3]; ratio of IC50 values) [fold] |
| --- | --- | --- | --- | --- | --- | --- | --- | --- | --- | --- |
| O=C(OCC1OC(OC(=O)c2cc(O)c(O)c(OC(=O)c3cc(O)c(O)c(O)c3)c2)C(OC(=O)c2cc(O)c(O)c(OC(=O)c3cc(O)c(O)c(O)c3)c2)C(OC(=O)c2cc(O)c(O)c(OC(=O)c3cc(O)c(O)c(O)c3)c2)C1OC(=O)c1cc(O)c(O)c(OC(=O)c2cc(O)c(O)c(O)c2)c1)c1cc(O)c(O)c(OC(=O)c2cc(O)c(O)c(O)c2)c1 (centres unmarked) [Tannic acid] | relieved environmental stress-induced diarrheal symptoms, inflammatory response, and oxidative stress | ≤ 15 | 1180 ± 100 | – | – | – | – | – | – | – |
| COc1cc(/C=C/C(=O)CC(=O)/C=C/c2ccc(O)c(OC)c2)ccc1O [Curcumin] | – | – | 290 ± 70 | higher antioxidant capacity than the control group | higher | higher | enhanced canine health by stimulating the antioxidant system and erythropoiesis | 100 | > 95 | 2.17 |
